pIC50: −log10 of the molar value.

T1 sequence (P47900 whole entry): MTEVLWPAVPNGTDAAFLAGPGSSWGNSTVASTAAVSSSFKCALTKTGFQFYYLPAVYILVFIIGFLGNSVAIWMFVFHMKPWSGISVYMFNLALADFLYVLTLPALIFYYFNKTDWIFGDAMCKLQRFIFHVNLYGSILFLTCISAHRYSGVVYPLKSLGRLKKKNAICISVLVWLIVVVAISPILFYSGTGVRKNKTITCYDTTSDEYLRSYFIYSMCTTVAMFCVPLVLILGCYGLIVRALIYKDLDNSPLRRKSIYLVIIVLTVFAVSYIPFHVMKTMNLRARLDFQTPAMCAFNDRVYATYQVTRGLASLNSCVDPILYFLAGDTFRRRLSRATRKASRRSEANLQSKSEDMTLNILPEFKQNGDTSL

The assay has as its target T1, platelet P2Y1 receptor (Homo sapiens, UniProt P47900).
T1 construct: expressed in transfected cells
The assay can be described thus: P2Y1 receptor binding assay ([β-33P]-2-thiomethyl ADP). As to conditions: binding of 0.3 nM [β-33P]-2-thiomethyl ADP, hP2Y1 expressing 132N1 cell membrane, 25° C., 60 minutes. On the procedure:
Conducting P2Y, Receptor Binding Assay
[β−^33P]-2-thiomethyl ADP (2100 Ci/mmol) was purchased from PerkinElmer, Protease Inhibitors Complete, EDTA-free, was purchased from Roche, and ADP (Adenosine diphosphate), MRS2179, and 2-thiomethy ADP (2-Me-S-ADP) were purchased from Sigma Chemical Co.
Binding of 0.3 nM [β-^33P]-2-thiomethyl ADP to platelet P2Y1 receptor in 132N1 cell membrane was carried out in triplicate at 25° C. with 96 well plate (Corning, 3365). Nonspecific binding was defined as binding in the presence of 1 μM of 2-Me-S-ADP. One […] of dimethyl sulfoxide (DMSO) or 1 μL of DMSO (Sigma-Aldrich, 472301) containing a test compound diluted to final assay concentrations of 0.1 nM to 1 mM were placed into each well of a Corning 96-well plate. A volume of 60 μL of buffer: 50 mM Tris pH 7.5 (Sigma, T-2194), 1 mM EDTA (Gibco, 15575-038) and 100 mM NaCl (Gibco, 200740-011) containing 0.3 nM [β-^33P]-2-thiomethyl ADP 40 μL of hP2Y1 expressing 132N1 cell membrane prep was added to each well. After incubation on shaker for 60 minutes, The contents of the wells are filtered and washed 8 times with Tomtec Cell Harvester through UniFilter 96, GF/B plates (PerkinElmer, 6005177) Forty five microliters […] Scintillation cocktail (Ultima-Flo-M) was added into each well and plates counted on a Trilux Microbeta Counter.
• 1. Add 1 μL DMSO or compounds into the wells according to the protocol. • 2. Add 60 μL incubation buffer with [β-^33P]-2-thiomethyl ADP into each well. • 3. Add 40 μL hP2Y1 expressing 132N1 cell membrance prep. Incubate 60 minutes on top of the shaker (IKA Shutter MTS4). • 4. Filter and wash 8× with Tomtec Cell Harvester through UniFilter GF/B plates (PerkinElmer, 6005177). • 5. Add 45 μL scintillation cocktail into each well and plates counted on a Trilux Microbeta Counter.
The compound `CCOC(=O)C(C)(C)c1ccc(NC(=O)Nc2ccccc2Oc2cc(C)nn2-c2ccccc2Cl)cc1` [Example 83, 2-[4-(3-{2-[2-(2-Chloro-phenyl)-5-methyl-2H-pyrazol-3-yloxy]-phenyl}-ureido)-phenyl]-2-methyl-propionic acid ethyl ester] showed a negative logarithm of the IC50 (pIC50) of 5.47.

With `Cc1cc(Oc2ccccc2NC(=O)Nc2ccc(C(C)(C)C(=O)O)cc2)n(-c2ccccc2Cl)n1` [Example 84, 2-[4-(3-{2-[2-(2-Chloro-phenyl)-5-methyl-2H-pyrazol-3-yloxy]-phenyl}-ureido)-phenyl]-2-methyl-propionic acid], the pIC50 is less than 5.00.

In turn, `Cc1cc(Oc2ccccc2NC(=O)Nc2ccc(C(C)(C)CO)cc2)n(-c2ccccc2Cl)n1` [Example 85, 1-{2-[2-(2-Chloro-phenyl)-5-methyl-2H-pyrazol-3-yloxy]-phenyl}-3-[4-(2-hydroxy-1,1-dimethyl-ethyl)-phenyl]-urea] showed a negative logarithm of the IC50 (pIC50) of less than 5.00.

Regarding `COC(=O)c1ccc(NC(=O)Nc2ccccc2Oc2cc(C)nn2-c2ccccc2Cl)cc1` [Example 86, 4-(3-{2-[2-(2-Chloro-phenyl)-5-methyl-2H-pyrazol-3-yloxy]-phenyl}-ureido)-benzoic acid methyl ester], the negative logarithm of the IC50 (pIC50) was 5.30.

`Cc1cc(Oc2ccccc2NC(=O)Nc2ccc(CO)cc2)n(-c2ccccc2Cl)n1` [Example 87, 1-{2-[2-(2-Chloro-phenyl)-5-methyl-2H-pyrazol-3-yloxy]-phenyl}-3-(4-hydroxymethyl-phenyl)-urea]: the negative-log IC50 (pIC50) was less than 5.00.

`Cc1cc(Oc2ccccc2NC(=O)Nc2ccc(OC(F)(F)F)cc2)n(-c2cccc(Cl)c2F)n1` [Example 88, 1-{2-[2-(3-Chloro-2-fluoro-phenyl)-5-methyl-2H-pyrazol-3-yloxy]-phenyl}-3-(4-trifluoromethoxy-phenyl)-urea] gave a pIC50 of 6.83.

`Cc1cc(Oc2ccccc2NC(=O)Nc2ccc(C3CCCCC3)cc2)n(-c2ccccc2Cl)n1` [Example 89, 1-{2-[2-(2-Chloro-phenyl)-5-methyl-2H-pyrazol-3-yloxy]-phenyl}-3-(4-cyclohexyl-phenyl)-urea] had a pIC50 of 7.27.

With `CCc1ccccc1-n1nc(C)cc1Oc1ccccc1NC(=O)Nc1ccc(-c2ccccc2)cc1` [Example 91, 1-(4-(phenyl)phenyl)-3-(2-(1-(2-ethylphenyl)-3-methyl-1H-pyrazol-5-yloxy)phenyl)urea], the pIC50 is 7.06.

As to `CCc1ccccc1-n1nc(C)cc1Oc1ccccc1NC(=O)Nc1ccc(Oc2ccccc2)cc1` [Example 92, 1-(2-(1-(2-ethylphenyl)-3-methyl-1H-pyrazol-5-yloxy)phenyl)-3-(4-phenoxyphenyl)urea], the pIC50 is 6.74.

`CCc1ccccc1-n1nc(C)cc1Oc1ccccc1NC(=O)Nc1ccc(C(F)(F)F)cc1F` [Example 93, 1-(2-(1-(2-ethylphenyl)-3-methyl-1H-pyrazol-5-yloxy)phenyl)-3-(2-fluoro-4-(trifluoromethyl)phenyl)urea] showed a pIC50 of 6.91.

`CCc1ccccc1-n1nc(C)cc1Oc1ccccc1NC(=O)Nc1ccc(OC(F)(F)F)cc1Cl` [Example 94, 1-(2-chloro-4-(trifluoromethoxy)phenyl)-3-(2-(1-(2-ethylphenyl)-3-methyl-1H-pyrazol-5-yloxy)phenyl)urea] had a negative-log IC50 (pIC50) of 5.06.

In turn, `CCc1ccccc1-n1nc(C)cc1Oc1ccccc1NC(=O)Nc1ccccc1` [Example 95, 1-(2-(1-(2-ethylphenyl)-3-methyl-1H-pyrazol-5-yloxy)phenyl)-3-phenylurea] had a pIC50 of 6.16. Compared with the last compound, the pIC50 is 1.10 log units higher.

`Cc1cc(Oc2ccccc2NC(=O)Nc2ccc(-c3ccccc3)cc2)n(-c2ccccc2Cl)n1` [Example 96, 1-(4-(phenyl)-phenyl)-3-(2-(1-(2-chlorophenyl)-3-methyl-1H-pyrazol-5-yloxy)phenyl)urea] gave a negative logarithm of the IC50 (pIC50) of 6.75. Against the preceding compound, the pIC50 is 0.59 log units higher.

On to `Cc1cc(Oc2ccccc2NC(=O)Nc2ccc(OC(F)(F)F)cc2)n(-c2ccc(C(C)(C)C)cc2)n1` [Example 97, 1-(2-(1-(4-tert-butylphenyl)-3-methyl-1H-pyrazol-5-yloxy)phenyl)-3-(4-(trifluoromethoxy)phenyl)urea], for which the pIC50 was 6.47.

In general, pIC50 refers to the IC50 on a negative log10 scale, so that one unit is a factor of ten. Read a low pIC50 as a high IC50.

The values are drawn from US20080269293A1, “PYRAZOLE DERIVATIVES AS ANTI-PLATELET AND ANTI-THROMBOTIC AGENTS” (Pfizer Inc., priority 2006, published 2008).
